Data from US20090252754A1, “Vaccines containing the hiv tat protein as an adjuvant for the enhancement of cytotoxic t-cell responses” (priority 2003, published 2009).

Columns and labels:
[1] = system: proteasomes purified from MIN and MON LCL's; assay: Enzyme assays of proteasomes purified from LCL's (Suc-LLVY-AMC, Boc-LRR-AMC, Ac-YVAD-AMC); type: biochemical, human
Experimental: Cells (5×10^7) were washed in cold PBS and resuspended in buffer containing 50 mM Tris-HCl pH 7.5, 5 mM MgCl2, 1 mM dithiothreitol (DTT, Sigma), 2 mM ATP, 250 mM sucrose. Glass beads equivalent to the volume of the cellular suspension were added and cells were vortexed for 1 min at 4° C. Beads and cell debris were removed by 5 minutes centrifugation at 1000×g, followed by 20 minutes centrifugation at 10,000×g. Supernatants were ultracentrifuged for 1 hour at 100,000×g^44. Supernatants were loaded into an affinity column containing an agarose matrix derivatised with the MCP21 mAb specific for the α2 subunit of the proteasome (Affinity, Exeter, UK). […] Protein concentration was determined using BCA protocol (Pierce Chemical).
The fluorogenic substrates Suc-LLVY-AMC, Boc-LRR-AMC and Ac-YVAD-AMC were used to measure chymotrypsin-like, trypsin-like and post-acidic proteasome activities, respectively. […] Fluorescence was determined by a fluorimeter (Spectrafluor plus, Tecan, Salzburg, Austria) using an excitation of 360 nm and emission of 465 nm. Proteasome activity is expressed in arbitrary fluorescence units^11.
To investigate whether the differences in subunit composition detected by Western blot analysis correlated with differences in enzymatic activity, we analysed the cleavage specificity of equal amount of proteasomes isolated from MIN-Tat and MON-Tat cells or control cells. […]

[2] = system: proteasome subunits (α2, PA28α, LMP2, LMP7, MECL1) in MIN and MON LCL's; assay: Western blot of proteasome subunits in lymphoblastoid cell lines expressing or treated with Tat; type: cell-based, human
Experimental: PG13 murine amphotropic packaging cell line^54 was cultured in DMEM supplemented with 10% FCS. Jurkat T cell transfectants (pRPneo-c and pRPneo-c-Tat)^22 were cultured in RPMI 1640 medium, supplemented with 10% FCS and 800 μg/ml neomycin (Sigma). Lymphoblastoid cell lines (LCL) were established by in vitro infection of normal B-lymphocytes from healthy donors with the B95.8 strain of EBV. LCL's were cultured in RPMI 1640 medium supplemented with 10% FCS.
MIN and MON LCL's were transduced with pBabePuro-Tat (MIN-Tat and MON-Tat) or pBabePuro (MIN-0 and MON-0) recombinant retroviruses by co-cultivation with packaging cell lines using transwell-clear tissue culture membranes. Subconfluent PG13 pBabePuro and PG13 pBabePuro-Tat cells, grown in the lower chamber, were co-cultivated in the presence of 8 μg/ml polybrene (Sigma) with MIN or MON LCL's (3×10^6/well) added to the upper chamber in 2.5 ml of RPMI 1640 medium supplemented with 10% FCS. After 48 hrs of co-cultivation, cells were harvested from the membranes and grown in culture medium containing puromycin (0.3 μg/ml) for 6 weeks. All cell lines were characterised by DNA-PCR, RT-PCR and Northern blot analysis.
Equal amounts of proteins were loaded on a 12% SDS-PAGE gel and electroblotted onto Protran nitrocellulose membranes (Schleicher & Schuell, Keene, Hampshire, USA). The blots were probed with antibodies specific for α2, LMP2, LMP7, MECL1, and PA28α subunits (Affinity, Exeter, UK) and developed by enhanced chemiluminescence (ECL, Amersham Pharmacia Biotech, Uppsala, SW).
To test the effect on proteasomes in cells after the up-take of exogenous Tat protein, MIN and MON LCL's were cultured in the absence or presence of increasing concentrations of biologically active Tat protein for 24 hours at 37° C. After treatment, the expression of the different subunits was analysed and compared to that of untreated cells. […] However, treatment with 0.1-1 μg/ml of Tat determined a down-regulation of LMP2 and an up-regulation of LMP7 and MECL1 as compared to untreated cells (FIG. 4).

[3] = system: proteasomes purified from Jurkat cells; assay: Enzymatic assays of proteasomes purified from Jurkat cells treated with Tat; type: biochemical, human; details: proteasomes from Jurkat cells treated for 24 h with 1 μg/ml Tat protein vs control cells
Experimental: Cells were lysed with glass beads as previously described (4). Supernatants were ultracentrifuged for 1 h at 100,000 g and loaded into an affinity column containing a matrix derivatised with the MCP21 mAb specific for the α2 subunit of the proteasome (Affinity, Exeter, UK). Proteasomes were eluted with 25 mM Tris-HCl pH 7.5 containing 2 M NaCl, and 0.5 ml fractions were collected. Homogeneity of the eluted material was confirmed by analysis of an aliquot by SDS 12% PAGE and Coomassie blue staining of the gel. Fractions containing proteasomes were combined and dialysed against 25 mM Tris-HCl pH 7.5. Protein concentration was determined using the BCA method (Pierce Chemical, Rockford, Ill.).
The chymotrypsin-like, trypsin-like and post-acidic activities of purified proteasomes were tested using the fluorogenic substrates Suc-LLVY-AMC, Boc-LRR-AMC and Ac-YVAD-AMC, respectively, as previously described (4). Fluorescence was determined by a fluorimeter (Spectrafluor plus, Tecan, Salzburg, Austria). Proteasome activity is expressed as arbitrary fluorescence units.
To investigate whether the differences in subunit composition correlated with differences in enzymatic activity, we analysed the cleavage specificity of equal amounts of proteasomes purified from Jurkat cells treated for 24 h with 1 μg/ml Tat protein or from control cells. […]

[4] = LCL's expressing endogenous Tat vs control cells
[5] = LCL's treated with 0.1-1 μg/ml of Tat, 24 hours, vs untreated

## Tat: HIV-1 Tat protein from HTLV type IIIB isolate, expressed in E. Coli or endogenously in cells; wild type SEQ ID NO 284
[1]; proteasomes from MIN and MON LCL's treated with 0.1 μg/ml of Tat (data not shown)
  three proteolytic activities of proteasomes: increase of all three proteolytic activities
[1]; proteasomes from MIN-Tat and MON-Tat cells vs control cells
  chymotryptic-like, tryptic-like and post-acidic activities of proteasomes: higher
[2]; LCL's expressing endogenous Tat (MIN-Tat, MON-Tat) vs control cells
  proteasome expression (α2-subunit): No difference
[2]; [4]
  expression of LMP2: marked down-regulation
  expression of LMP7: up-regulation
  expression of MECL1: up-regulation
  expression of PA28α regulator: no differences
[2]; [5]
  expression of LMP2: down-regulation
  expression of LMP7: up-regulation
  expression of MECL1: up-regulation
[2]; MIN and MON LCL's cultured with exogenous Tat protein, 24 hours, vs untreated
  expression of the α2-subunit: No difference
[3]
  chymotryptic-like, tryptic-like and post-acidic activities: all augmented
